Data as given in BindingDB's records for doi:10.1021/jm9011609 (University of Manchester, 2009).

Target: NAD(P)H dehydrogenase [quinone] 1 (Homo sapiens, UniProt P15559)
Assay: Inhibition of NQO1 (With 2 uM BSA)
Conditions: pH 7.5
Protocol: On some occasions, potential inhibitors were dissolved in 0.13 M NaOH. Reactions were carried out at 25 deg C and cytochrome c reduction was monitored at 550nm in a BeckmanDU650 spectrophotometer.

Chain of NAD(P)H dehydrogenase [quinone] 1 (P15559 whole entry): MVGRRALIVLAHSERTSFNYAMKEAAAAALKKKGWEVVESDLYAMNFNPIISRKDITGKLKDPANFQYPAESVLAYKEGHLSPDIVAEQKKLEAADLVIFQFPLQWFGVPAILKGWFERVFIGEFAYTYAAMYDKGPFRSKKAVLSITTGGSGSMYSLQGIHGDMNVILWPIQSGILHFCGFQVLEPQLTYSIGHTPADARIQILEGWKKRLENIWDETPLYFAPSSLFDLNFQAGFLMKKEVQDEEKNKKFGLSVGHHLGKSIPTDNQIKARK

Structure (SMILES)	IC50	IC50 (25 °C)
O=c1oc2ccc3ccccc3c2c(O)c1Cc1ccc2ccccc2c1 [4-hydroxy-2H-chromen-2-one core, 23]	6 nM	2370 nM
O=c1oc2c(ccc3ccccc32)c(O)c1Cc1ccccc1 [4-hydroxy-2H-chromen-2-one core, 21]	35 nM	880 nM
